Experimental data: PubChem BioAssay AID1259407 (Chemical Carcinogenesis Research Information System (CCRIS), 2018)
Calls of active or inactive are those of the source. The rule behind the calls is not given here.

System: CCRIS mutagenicity, Ames/micronucleus/aberration tests
Test: CCRIS mutagenicity studies
[1] = Test System: AMES SALMONELLA TYPHIMURIUM, Strain/Indicator: TA98, Metabolic Activation: NONE, Method: PREINCUBATION
[2] = Test System: AMES SALMONELLA TYPHIMURIUM, Strain/Indicator: TA100, Metabolic Activation: NONE, Method: PREINCUBATION
[3] = Test System: AMES SALMONELLA TYPHIMURIUM, Strain/Indicator: TA1535, Metabolic Activation: NONE, Method: PREINCUBATION
[4] = Test System: AMES SALMONELLA TYPHIMURIUM, Strain/Indicator: TA1537, Metabolic Activation: NONE, Method: PREINCUBATION
[5] = Test System: AMES SALMONELLA TYPHIMURIUM, Strain/Indicator: TA98, Metabolic Activation: NONE, Method: STANDARD PLATE
[6] = Test System: AMES SALMONELLA TYPHIMURIUM, Strain/Indicator: TA98, Metabolic Activation: RAT, LIVER, S-9, AROCLOR 1254, Method: STANDARD PLATE
[7] = Test System: AMES SALMONELLA TYPHIMURIUM, Strain/Indicator: TA100, Metabolic Activation: NONE, Method: STANDARD PLATE
[8] = Test System: AMES SALMONELLA TYPHIMURIUM, Strain/Indicator: TA100, Metabolic Activation: RAT, LIVER, S-9, AROCLOR 1254, Method: STANDARD PLATE
[9] = Test System: AMES SALMONELLA TYPHIMURIUM, Strain/Indicator: TA1535, Metabolic Activation: NONE, Method: STANDARD PLATE
[10] = Test System: AMES SALMONELLA TYPHIMURIUM, Strain/Indicator: TA1535, Metabolic Activation: RAT, LIVER, S-9, AROCLOR 1254, Method: STANDARD PLATE
[11] = Test System: AMES SALMONELLA TYPHIMURIUM, Strain/Indicator: TA1537, Metabolic Activation: NONE, Method: STANDARD PLATE
[12] = Test System: AMES SALMONELLA TYPHIMURIUM, Strain/Indicator: TA1537, Metabolic Activation: RAT, LIVER, S-9, AROCLOR 1254, Method: STANDARD PLATE
[13] = Test System: AMES SALMONELLA TYPHIMURIUM, Strain/Indicator: TA1538, Metabolic Activation: NONE, Method: STANDARD PLATE
[14] = Test System: AMES SALMONELLA TYPHIMURIUM, Strain/Indicator: TA1538, Metabolic Activation: RAT, LIVER, S-9, AROCLOR 1254, Method: STANDARD PLATE

O=C(Br)CBr
mutagenic call (End Point: IN VITRO CHROMOSOMAL ABERRATIONS, Test System: CHL CELLS, Metabolic Activation: RAT, LIVER, S-9, SODIUM PHENOBARBITAL AND 5,6-BENZOFLAVONE): inactive; negative; authors report equivocal results for structural changes at 0.02 mg/ml
mutagenic call [1]: inactive; negative
mutagenic call (Test System: AMES SALMONELLA TYPHIMURIUM, Strain/Indicator: TA98, Metabolic Activation: RAT, LIVER, S-9, PHENOBARBITAL AND BETA-NAPHTHOFLAVONE, Method: PREINCUBATION): inactive; negative
mutagenic call [2]: inactive; negative
mutagenic call (Test System: AMES SALMONELLA TYPHIMURIUM, Strain/Indicator: TA100, Metabolic Activation: RAT, LIVER, S-9, PHENOBARBITAL AND BETA-NAPHTHOFLAVONE, Method: PREINCUBATION): inactive; negative
mutagenic call (Test System: AMES SALMONELLA TYPHIMURIUM, Strain/Indicator: TA102, Metabolic Activation: NONE, Method: PREINCUBATION): inactive; negative
mutagenic call (Test System: AMES SALMONELLA TYPHIMURIUM, Strain/Indicator: TA102, Metabolic Activation: RAT, LIVER, S-9, PHENOBARBITAL AND BETA-NAPHTHOFLAVONE, Method: PREINCUBATION): inactive; negative
mutagenic call (Test System: AMES SALMONELLA TYPHIMURIUM, Strain/Indicator: TA104, Metabolic Activation: NONE, Method: PREINCUBATION): active; positive
mutagenic call (Test System: AMES SALMONELLA TYPHIMURIUM, Strain/Indicator: TA104, Metabolic Activation: RAT, LIVER, S-9, PHENOBARBITAL AND BETA-NAPHTHOFLAVONE, Method: PREINCUBATION): active; positive
mutagenic call [3]: inactive; negative
mutagenic call (Test System: AMES SALMONELLA TYPHIMURIUM, Strain/Indicator: TA1535, Metabolic Activation: RAT, LIVER, S-9, PHENOBARBITAL AND BETA-NAPHTHOFLAVONE, Method: PREINCUBATION): inactive; negative
mutagenic call [4]: inactive; negative
mutagenic call (Test System: AMES SALMONELLA TYPHIMURIUM, Strain/Indicator: TA1537, Metabolic Activation: RAT, LIVER, S-9, PHENOBARBITAL AND BETA-NAPHTHOFLAVONE, Method: PREINCUBATION): inactive; negative
mutagenic call (Test System: E. COLI, Strain/Indicator: WP2UVRA/PKM101, Metabolic Activation: RAT, LIVER, S-9, PHENOBARBITAL AND BETA-NAPHTHOFLAVONE, Method: PREINCUBATION): active; positive
mutagenic call (Test System: E. COLI, Strain/Indicator: WP2UVRA, Metabolic Activation: NONE, Method: PREINCUBATION): inactive; negative
mutagenic call (Test System: E. COLI, Strain/Indicator: WP2UVRA, Metabolic Activation: RAT, LIVER, S-9, PHENOBARBITAL AND BETA-NAPHTHOFLAVONE, Method: PREINCUBATION): inactive; negative

CC(=O)Nc1nc(-c2ccc([N+](=O)[O-])o2)cs1
mutagenic call (Test System: AMES SALMONELLA TYPHIMURIUM, Strain/Indicator: TA100, Metabolic Activation: RAT, LIVER, S-9, KC500 OR PHENOBARBITAL, Method: LIQUID SUSPENSION): active; positive
mutagenic call (Test System: E. COLI WP2, Strain/Indicator: WP2, Metabolic Activation: NONE, Method: SPOT): active; positive

Clc1ccnc2ccccc12
mutagenic call (Test System: AMES SALMONELLA TYPHIMURIUM, Strain/Indicator: TA100, Metabolic Activation: RAT, LIVER, S-9, PHENOBARBITAL AND 5,6-BENZOFLAVONE, Method: PREINCUBATION): active; positive

CC(C)CCCCCCOC(=O)CCCCC(=O)OCCCCCCC(C)C
mutagenic call (Test System: AMES SALMONELLA TYPHIMURIUM, Strain/Indicator: TA98, Metabolic Activation: HAMSTER, LIVER, S-9, AROCLOR 1254, Method: STANDARD PLATE): inactive; negative
mutagenic call [5]: inactive; negative
mutagenic call [6]: inactive; negative
mutagenic call (Test System: AMES SALMONELLA TYPHIMURIUM, Strain/Indicator: TA100, Metabolic Activation: HAMSTER, LIVER, S-9, AROCLOR 1254, Method: STANDARD PLATE): inactive; negative
mutagenic call [7]: inactive; negative
mutagenic call [8]: inactive; negative
mutagenic call (Test System: AMES SALMONELLA TYPHIMURIUM, Strain/Indicator: TA1535, Metabolic Activation: HAMSTER, LIVER, S-9, AROCLOR 1254, Method: STANDARD PLATE): inactive; negative
mutagenic call [9]: inactive; negative
mutagenic call [10]: inactive; negative
mutagenic call (Test System: AMES SALMONELLA TYPHIMURIUM, Strain/Indicator: TA1537, Metabolic Activation: HAMSTER, LIVER, S-9, AROCLOR 1254, Method: STANDARD PLATE): inactive; negative
mutagenic call [11]: inactive; negative
mutagenic call [12]: inactive; negative
mutagenic call (Test System: AMES SALMONELLA TYPHIMURIUM, Strain/Indicator: TA1538, Metabolic Activation: HAMSTER, LIVER, S-9, AROCLOR 1254, Method: STANDARD PLATE): inactive; negative
mutagenic call [13]: inactive; negative
mutagenic call [14]: inactive; negative
mutagenic call (Test System: MOUSE LYMPHOMA, Strain/Indicator: L5178Y (TK+/TK-), Metabolic Activation: NONE, Method: SUSPENSION/PLATE): inactive; negative
mutagenic call (Test System: MOUSE LYMPHOMA, Strain/Indicator: L5178Y (TK+/TK-), Metabolic Activation: RAT, LIVER, S-9, AROCLOR 1254, Method: SUSPENSION/PLATE): inactive; negative

O.[Al+3].[Al+3].[Na+].[Na+].[O-2].[O-2].[O-2].[O-2].[O-2].[O-2].[Si+4]
mutagenic call (Test System: AMES SALMONELLA TYPHIMURIUM, Strain/Indicator: TA98, Metabolic Activation: HAMSTER, LIVER, S-9, AROCLOR 1254 (10%), Method: PREINCUBATION): inactive; negative
mutagenic call [1]: inactive; negative
mutagenic call [5]: inactive; negative
mutagenic call (Test System: AMES SALMONELLA TYPHIMURIUM, Strain/Indicator: TA98, Metabolic Activation: RAT, LIVER, S-9, AROCLOR 1254 (10%), Method: PREINCUBATION): inactive; negative
mutagenic call [6]: inactive; negative
mutagenic call (Test System: AMES SALMONELLA TYPHIMURIUM, Strain/Indicator: TA100, Metabolic Activation: HAMSTER, LIVER, S-9, AROCLOR 1254 (10%), Method: PREINCUBATION): inactive; negative
mutagenic call [2]: inactive; negative
mutagenic call [7]: inactive; negative
mutagenic call (Test System: AMES SALMONELLA TYPHIMURIUM, Strain/Indicator: TA100, Metabolic Activation: RAT, LIVER, S-9, AROCLOR 1254 (10%), Method: PREINCUBATION): inactive; negative
mutagenic call [8]: inactive; negative
mutagenic call (Test System: AMES SALMONELLA TYPHIMURIUM, Strain/Indicator: TA1535, Metabolic Activation: HAMSTER, LIVER, S-9, AROCLOR 1254 (10%), Method: PREINCUBATION): inactive; negative
mutagenic call [3]: inactive; negative
mutagenic call [9]: inactive; negative
mutagenic call (Test System: AMES SALMONELLA TYPHIMURIUM, Strain/Indicator: TA1535, Metabolic Activation: RAT, LIVER, S-9, AROCLOR 1254 (10%), Method: PREINCUBATION): inactive; negative
mutagenic call [10]: inactive; negative
mutagenic call (Test System: AMES SALMONELLA TYPHIMURIUM, Strain/Indicator: TA1537, Metabolic Activation: HAMSTER, LIVER, S-9, AROCLOR 1254 (10%), Method: PREINCUBATION): inactive; negative
mutagenic call [4]: inactive; negative
mutagenic call [11]: inactive; negative
mutagenic call (Test System: AMES SALMONELLA TYPHIMURIUM, Strain/Indicator: TA1537, Metabolic Activation: RAT, LIVER, S-9, AROCLOR 1254 (10%), Method: PREINCUBATION): inactive; negative
mutagenic call [12]: inactive; negative
mutagenic call [13]: inactive; negative
mutagenic call [14]: inactive; negative
mutagenic call (Test System: E. COLI, Strain/Indicator: WP2, Metabolic Activation: NONE, Method: STANDARD PLATE): inactive; negative
mutagenic call (Test System: E. COLI, Strain/Indicator: WP2, Metabolic Activation: RAT, LIVER, S-9, AROCLOR 1254, Method: STANDARD PLATE): inactive; negative
